Earlier results in patent US10898503B2, “Cleavable drug conjugates, compositions thereof and methods of use” (priority 2013, dated 2021).
Read-outs that look alike come from different tables or passages of the source.

Tests used:
[1] = in vivo
[2] = patients

Row | Molecule | half-life [1] | chance of developing cardiomyopathy ([2]; cumulative dose of 300 mg/m^2) | chance of developing cardiomyopathy ([2]; cumulative dose of 400 mg/m^2) | chance of developing cardiomyopathy ([2]; cumulative dose of 450 mg/m^2) [%] | chance of developing cardiomyopathy ([2]; cumulative dose of 500 mg/m^2)
1 | enfuvirtide | four |  |  |  | 
2 | COc1cccc2c1C(=O)c1c(O)c3c(c(O)c1C2=O)C[C@@](O)(C(=O)CO)C[C@@H]3O[C@H]1C[C@H](N)[C@H](O)[C@H](C)O1 [Doxorubicin] |  | 1-2% | 3-5% | 5 to 8 | 6-20%
